In US9802927B2, “Oxadiazine compounds and methods of use thereof” (Denali Therapeutics, Inc., priority 2015, dated 2017):

What follows are compounds tested on Aβ42 (assay: In vitro cell screening assay in H4 cells expressing human APP751: Aβ42 by sandwich ELISA). Details: Homo sapiens, compounds 0.003-10 μM, incubated overnight (16-18 h), sandwich ELISA of supernatant.
Type: cell-based
In short: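 H4 neuroglioma cells stably expressing wild-type human APP751, switched to Pro293 medium and treated with compounds (0.003-10 μM, 0.33% DMSO) for 16-18 h at 37 °C. Supernatant Aβ42 quantified by sandwich ELISA (C-terminal capture, 4G8-HRP detection, A450); EC50 by sigmoidal fit normalized to DMSO and DAPT controls.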

EC50 [nM] | SMILES
18.4 | COc1nc(C2=NOC[C@H](c3cc4ccc(C)cc4o3)N2)ccc1-n1cnc(C)c1 [Example 22, (R)-3-(6-Methoxy-5-(4-methyl-1H-imidazol-1-yl)pyridin-2-yl)-5-(6-methylbenzofuran-2-yl)-5,6-dihydro-4H-1,2,4-oxadiazine]
11.5 | COc1nc(C2=NOC[C@H](c3cc4c(C)cccc4o3)N2)ccc1-n1cnc(C)c1 [Example 19, (R)-3-(6-Methoxy-5-(4-methyl-1H-imidazol-1-yl)pyridin-2-yl)-5-(4-methylbenzofuran-2-yl)-5,6-dihydro-4H-1,2,4-oxadiazine]
16 | COc1nc(C2=NOC[C@H](c3cc4cc(C)ccc4o3)N2)ccc1-n1cnc(C)c1 [Example 10, (R)-3-(6-Methoxy-5-(4-methyl-1H-imidazol-1-yl)pyridin-2-yl)-5-(5-methylbenzofuran-2-yl)-5,6-dihydro-4H-1,2,4-oxadiazine]

Same assay, conditions: compounds 0.003-10 μM, incubated overnight (16-18 h), sandwich ELISA of supernatant

EC50 [nM] | SMILES
> 3000 | COc1nc(C2=NOCC(c3oc(C)nc3C)N2)ccc1-n1cnc(C)c1 (single isomer, unassigned; (+)) [Example 161B, (+)-5-(2,4-dimethyloxazol-5-yl)-3-(6-methoxy-5-(4-methyl-1H-imidazol-1-yl)pyridin-2-yl)-5,6-dihydro-4H-1,2,4-oxadiazine]
23.5 | COc1ccc2c(C3CON=C(c4ccc(-n5cnc(C)c5)c(OC)n4)N3)cn(C)c2c1 (single isomer, unassigned; (+)) [Example 258B, (+)-5-(6-methoxy-1-methyl-1H-indol-3-yl)-3-(6-methoxy-5-(4-methyl-1H-imidazol-1-yl)pyridin-2-yl)-5,6-dihydro-4H-1,2,4-oxadiazine]
> 3000 | COc1nc(C2=NOCC(c3ccc(OC(F)F)cc3)N2)ccc1-n1cnc(C)c1 (single isomer, unassigned; (-)) [Example 93A, (−)-5-(4-(difluoromethoxy)phenyl)-3-(6-methoxy-5-(4-methyl-1H-imidazol-1-yl)pyridin-2-yl)-5,6-dihydro-4H-1,2,4-oxadiazine]
167 | COc1nc(C2=NOCC(c3cn(C)c4cc(F)c(C(F)(F)F)cc34)N2)ccc1-n1cnc(C)c1 (single isomer, unassigned; (-)) [Example 104A, (−)-5-(6-fluoro-1-methyl-5-(trifluoromethyl)-1H-indol-3-yl)-3-(6-methoxy-5-(4-methyl-1H-imidazol-1-yl)pyridin-2-yl)-5,6-dihydro-4H-1,2,4-oxadiazine]
1550 | COc1nc(C2=NOCC(c3ccc(Cl)c(C)c3)N2)ccc1-n1cnc(C)c1 (single isomer, unassigned; (-)) [Example 86A, (−)-5-(4-chloro-3-methylphenyl)-3-(6-methoxy-5-(4-methyl-1H-imidazol-1-yl)pyridin-2-yl)-5,6-dihydro-4H-1,2,4-oxadiazine]
107 | COc1nc(C2=NOCC(C3CCCC3)N2)ccc1-n1cnc(C)c1 (single isomer, unassigned; (-)) [Example 171B, (−)-5-cyclopentyl-3-(6-methoxy-5-(4-methyl-1H-imidazol-1-yl)pyridin-2-yl)-5,6-dihydro-4H-1,2,4-oxadiazine]
2320 | COc1nc(C2=NOCC(c3cc4ccc(C(F)(F)F)cc4o3)N2)ccc1-n1cnc(C)c1 (single isomer, unassigned; (-)) [Example 260A, (−)-3-(6-methoxy-5-(4-methyl-1H-imidazol-1-yl)pyridin-2-yl)-5-(6-(trifluoromethyl)benzofuran-2-yl)-5,6-dihydro-4H-1,2,4-oxadiazine]
386 | COc1nc(C2=NOCC(c3nn(C)c4ccc(C(F)(F)F)cc34)N2)ccc1-n1cnc(C)c1 (single isomer, unassigned; (-)) [Example 241A, (−)-3-(6-methoxy-5-(4-methyl-1H-imidazol-1-yl)pyridin-2-yl)-5-(1-methyl-5-(trifluoromethyl)-1H-indazol-3-yl)-5,6-dihydro-4H-1,2,4-oxadiazine]
19.5 | COc1nc(C2=NOCC(c3cn(C)c4ccc(F)cc34)N2)ccc1-n1cnc(C)c1 (single isomer, unassigned; (+)) [Example 190B, (+)-5-(5-fluoro-1-methyl-1H-indol-3-yl)-3-(6-methoxy-5-(4-methyl-1H-imidazol-1-yl)pyridin-2-yl)-5,6-dihydro-4H-1,2,4-oxadiazine]
> 3000 | COc1nc(C2=NOCC(c3ccc4scnc4c3)N2)ccc1-n1cnc(C)c1 (single isomer, unassigned; (-)) [Example 240A, (−)-5-(benzo[d]thiazol-5-yl)-3-(6-methoxy-5-(4-methyl-1H-imidazol-1-yl)pyridin-2-yl)-5,6-dihydro-4H-1,2,4-oxadiazine]
5.5 | COc1nc(C2=NOCC(c3cn(C)c4ccc(F)c(F)c34)N2)ccc1-n1cnc(C)c1 (single isomer, unassigned; (+)) [Example 220B, (+)-5-(4,5-difluoro-1-methyl-1H-indol-3-yl)-3-(6-methoxy-5-(4-methyl-1H-imidazol-1-yl)pyridin-2-yl)-5,6-dihydro-4H-1,2,4-oxadiazine]
252 | COc1nc(C2=NOCC(c3cn(C)c4ccccc34)N2)ccc1-n1cnc(C)c1 (single isomer, unassigned; (-)) [Example 189B, (−)-3-(6-methoxy-5-(4-methyl-1H-imidazol-1-yl)pyridin-2-yl)-5-(1-methyl-1H-indol-3-yl)-5,6-dihydro-4H-1,2,4-oxadiazine]
2320 | COc1nc(C2=NOCC(c3nc4ccccc4o3)N2)ccc1-n1cnc(C)c1 (single isomer, unassigned; (-)) [Example 203A, (−)-2-(3-(6-methoxy-5-(4-methyl-1H-imidazol-1-yl)pyridin-2-yl)-5,6-dihydro-4H-1,2,4-oxadiazin-5-yl)benzo[d]oxazole]
4.2 | COc1nc(C2=NOCC(c3cn(C)c4cc(F)c(Cl)cc34)N2)ccc1-n1cnc(C)c1 (single isomer, unassigned; (+)) [Example 216B, (+)-5-(5-chloro-6-fluoro-1-methyl-1H-indol-3-yl)-3-(6-methoxy-5-(4-methyl-1H-imidazol-1-yl)pyridin-2-yl)-5,6-dihydro-4H-1,2,4-oxadiazine]
651 | COc1nc(C2=NOCC(c3sc4ccccc4c3C)N2)ccc1-n1cnc(C)c1 (single isomer, unassigned; (-)) [Example 66A, (−)-3-(6-methoxy-5-(4-methyl-1H-imidazol-1-yl)pyridin-2-yl)-5-(3-methylbenzo [b]thiophen-2-yl)-5,6-dihydro-4H-1,2,4-oxadiazine]
21.4 | COc1nc(C2=NOCC(c3ccc(Cl)c(C(F)F)c3)N2)ccc1-n1cnc(C)c1 (single isomer, unassigned; (+)) [Example 270B, (+)-5-(4-chloro-3-(difluoromethyl)phenyl)-3-(6-methoxy-5-(4-methyl-1H-imidazol-1-yl)pyridin-2-yl)-5,6-dihydro-4H-1,2,4-oxadiazine]
128 | COc1nc(C2=NOCC(c3ccc(F)cc3F)N2)ccc1-n1cnc(C)c1 (single isomer, unassigned) [Example 129B, 5-(2,4-difluorophenyl)-3-(6-methoxy-5-(4-methyl-1H-imidazol-1-yl)pyridin-2-yl)-5,6-dihydro-4H-1,2,4-oxadiazine]
73.8 | COc1nc(C2=NOCC(c3ccc(C)cc3)N2)ccc1-n1cnc(C)c1 (single isomer, unassigned; (+)) [Example 227B, (+)-3-(6-methoxy-5-(4-methyl-1H-imidazol-1-yl)pyridin-2-yl)-5-(p-tolyl)-5,6-dihydro-4H-1,2,4-oxadiazine]
